Results taken from PMC3250956, “Functional characterization and analgesic effects of mixed cannabinoid receptor/T-type channel ligands” (Molecular Pain, 2011).

Columns and labels:
Human CB2 = Human CB2 (Homo sapiens, UniProt P34972); assay: GTPγ[35S] functional assay, CHO cell membrane extracts; type: biochemical; set-up: expressed in transfected cells; host or cells: CHO cells (membrane extracts)
Cav3.2 = target: T1, Cav3.2 (Homo sapiens, UniProt O95180); assay: Whole-cell patch-clamp on Cav3.2: concentration-response and steady-state inactivation; type: cell-based; conditions: 10 μM
T1 construct: expressed in transfected cells; host or cells: tsA-201 cells, transient calcium phosphate transfection
T1 sequence (O95180 whole entry): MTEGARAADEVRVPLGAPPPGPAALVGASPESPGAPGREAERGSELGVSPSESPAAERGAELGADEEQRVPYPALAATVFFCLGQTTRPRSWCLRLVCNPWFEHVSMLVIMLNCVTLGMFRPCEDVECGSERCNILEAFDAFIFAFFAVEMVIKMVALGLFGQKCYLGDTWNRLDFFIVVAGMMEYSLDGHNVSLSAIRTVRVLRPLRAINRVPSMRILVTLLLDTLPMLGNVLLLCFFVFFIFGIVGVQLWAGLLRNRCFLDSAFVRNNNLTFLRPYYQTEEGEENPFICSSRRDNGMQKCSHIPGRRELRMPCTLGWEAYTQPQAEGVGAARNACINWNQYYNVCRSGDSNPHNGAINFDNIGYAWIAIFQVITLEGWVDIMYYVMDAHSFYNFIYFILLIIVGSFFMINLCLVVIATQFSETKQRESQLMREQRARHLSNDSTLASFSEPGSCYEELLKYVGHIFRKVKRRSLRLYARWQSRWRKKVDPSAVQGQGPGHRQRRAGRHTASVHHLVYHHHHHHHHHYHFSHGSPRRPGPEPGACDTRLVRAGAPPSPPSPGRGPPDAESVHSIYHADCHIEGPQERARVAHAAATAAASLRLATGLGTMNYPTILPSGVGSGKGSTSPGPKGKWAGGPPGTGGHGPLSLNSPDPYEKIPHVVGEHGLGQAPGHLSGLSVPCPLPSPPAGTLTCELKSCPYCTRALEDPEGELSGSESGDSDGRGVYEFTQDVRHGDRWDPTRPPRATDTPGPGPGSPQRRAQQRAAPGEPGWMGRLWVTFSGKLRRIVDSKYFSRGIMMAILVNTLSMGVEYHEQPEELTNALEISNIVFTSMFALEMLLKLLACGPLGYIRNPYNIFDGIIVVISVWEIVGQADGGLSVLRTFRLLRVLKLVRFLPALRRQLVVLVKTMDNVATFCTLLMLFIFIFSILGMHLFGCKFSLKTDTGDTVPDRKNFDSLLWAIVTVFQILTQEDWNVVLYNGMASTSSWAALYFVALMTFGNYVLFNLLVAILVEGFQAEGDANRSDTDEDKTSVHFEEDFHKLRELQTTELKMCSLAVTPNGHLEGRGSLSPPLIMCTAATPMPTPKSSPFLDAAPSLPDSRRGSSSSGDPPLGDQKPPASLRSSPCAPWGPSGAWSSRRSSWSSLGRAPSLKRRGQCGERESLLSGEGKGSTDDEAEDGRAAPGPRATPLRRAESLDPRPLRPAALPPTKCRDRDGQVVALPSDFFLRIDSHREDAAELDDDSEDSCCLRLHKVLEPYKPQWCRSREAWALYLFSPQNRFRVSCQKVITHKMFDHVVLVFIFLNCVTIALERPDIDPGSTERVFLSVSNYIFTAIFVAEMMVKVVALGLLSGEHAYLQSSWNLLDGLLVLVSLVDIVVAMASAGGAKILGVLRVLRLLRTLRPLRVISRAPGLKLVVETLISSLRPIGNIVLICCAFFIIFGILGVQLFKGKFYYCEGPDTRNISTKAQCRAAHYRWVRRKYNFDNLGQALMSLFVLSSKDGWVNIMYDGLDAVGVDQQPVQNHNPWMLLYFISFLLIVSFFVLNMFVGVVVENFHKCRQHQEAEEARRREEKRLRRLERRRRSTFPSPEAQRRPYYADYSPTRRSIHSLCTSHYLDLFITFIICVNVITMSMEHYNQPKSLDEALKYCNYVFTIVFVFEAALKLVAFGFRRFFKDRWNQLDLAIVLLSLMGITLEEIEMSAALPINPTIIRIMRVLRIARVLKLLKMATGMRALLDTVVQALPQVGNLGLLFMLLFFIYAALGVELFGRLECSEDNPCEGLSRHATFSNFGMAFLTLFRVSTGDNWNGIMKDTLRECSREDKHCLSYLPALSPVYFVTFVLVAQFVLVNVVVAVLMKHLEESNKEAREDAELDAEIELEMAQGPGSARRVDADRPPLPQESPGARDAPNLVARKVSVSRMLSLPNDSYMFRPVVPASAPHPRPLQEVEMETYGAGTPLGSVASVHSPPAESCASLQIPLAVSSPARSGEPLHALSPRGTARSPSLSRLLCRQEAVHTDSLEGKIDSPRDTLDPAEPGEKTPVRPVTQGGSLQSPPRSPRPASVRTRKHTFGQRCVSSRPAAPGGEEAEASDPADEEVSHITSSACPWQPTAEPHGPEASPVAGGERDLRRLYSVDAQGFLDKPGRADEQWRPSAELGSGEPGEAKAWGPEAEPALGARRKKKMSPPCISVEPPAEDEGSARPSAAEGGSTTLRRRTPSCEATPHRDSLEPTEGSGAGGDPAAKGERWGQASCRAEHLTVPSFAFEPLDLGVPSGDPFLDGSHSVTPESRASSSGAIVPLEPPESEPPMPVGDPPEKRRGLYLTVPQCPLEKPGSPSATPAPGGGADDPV
Method: To further characterize compounds NMP-4, NMP-7 and NMP-144, we investigated the concentration dependence of their action on Cav3.2, the major T-type calcium channel subtype implicated in the afferent pain pathway (Figure 2B, C).
To determine whether these compounds also affected inactivated channels, we recorded steady-state inactivation curves prior and after application of NMP-4, NMP-7 or NMP-144.
Whole-cell currents were recorded from tsa-201 cells 2-4 days after transfection. The external recording solution contained (in mM): BaCl2 (20), MgCl2 (1), HEPES (10), TEA-Cl (40), CsCl (65), d-glucose (10) and pH 7.2 adjusted with TEA-OH. The internal pipette solution was composed of (in mM) Cs-methanesulfonate (108), MgCl2 (4), EGTA (9), HEPES (9) and pH 7.2 adjusted with CsOH. The internal solution was supplemented with 0.6 mM GTP (sodium salt) and 2 mM ATP (tris salt), which were added directly to the internal solution immediately prior to use. Pipettes with a resistance of 2~5 MΩ when filled with internal solution were used for recording. Currents were elicited from a holding potential of -100 mV and were measured by conventional whole-cell patch clamp using an Axopatch 200B amplifier in combination with Clampex 9.2 software (Axon Instruments, Foster City, CA). Data were filtered at 1 kHz (8-pole Bessel) and digitized at 10 kHz with a Digidata 1320 (Axon Instruments, Foster City, CA). Series resistance were compensated by 85% in all experiments. An online P/4 programme was used to subtract the leak currents. Drugs were dissolved in DMSO at the following stock concentrations: 20 mM for NMP-4 and NMP-7, and 10 mM for NMP-139, NMP-140, NMP-141 and NMP-144. Prior to the experiment, drugs were diluted into external recording solution with a final DMSO concentration no higher than 0.3%. DMSO was also included in the control solution. Drug delivery was controlled by a Valvelink8.2 fast perfusion system (Automate Scientific Inc., Berkeley, CA). The perfusion tip was positioned a few hundred microns from the cell and kept as constant as possible throughout the experiments. Electrophysiological data were analyzed using Clampfit 9.2 (Axon Instruments, Foster City, CA) and GraphPad Prism 5 software (GraphPad Software Inc., San Diego, CA). […] Steady-state inactivation curves were fitted using the Boltzmann equation: I = 1/(1 + e ^(V-Vh)/k), where Vh is the half inactivating potential and k is the slope factor.

locomotor activity = assay: Open-field test; type: in vivo, mice; conditions: 1 mg/kg i.p., 30 minutes before the experiment; data not shown
From the text: We then delivered NMP-7 via the intrperitoneal route.

formalin-induced pain = assay: Formalin test (formalin-induced nociception); type: in vivo, mice
Method: All experiments were conducted following the protocol approved by the Institutional Animal Care and Use Committee (protocol #M09130) and all efforts were made to minimize animal suffering. Male mice of C57BL/6J strain weighing 25~30 g, 10 weeks old were used. Animals were housed at a maximum number of five per cage (30 × 20 × 15 cm) with food and water ad libitum. They were kept in 12 h light/dark cycles (lights on at 7:00 a.m.) at a temperature of 23 ± 1°C. All manipulations were carried out between 11:00 am and 3:00 pm. […] Control animals received the same vehicle used to dilute the compounds. When drugs were delivered by intraperitoneal (i.p.) route, a constant volume of 10 ml/kg body weight was injected. When drugs were administered by intrathecal (i.t.) or intraplantar (i.pl.) routes, respectively volumes of 5 μl or 20 μl were injected. Appropriate vehicle-treated groups were also assessed simultaneously.
The formalin test is a widely used model that allows us to evaluate two different types of pain: neurogenic pain (phase 1) is caused by direct activation of nociceptive nerve terminals, while inflammatory pain (phase 2) is mediated by a combination of peripheral input and spinal cord sensitization. Animals received 20 μl of a formalin solution (1.25%) made up in PBS injected intraplantarly (i.pl.) in the ventral surface of the right hindpaw. Following i.pl. injection of formalin, the animals were immediately placed individually into observation chambers and the time spent licking or biting the injected paw was be recorded and considered as nociceptive response. We observed animals individually from 0-5 min (neurogenic phase) and 15-30 min (inflammatory phase).
Intrathecal injections were given to fully conscious mice using the method previously described by Hylden and Wilcox. Briefly, the animals were manually restrained, and a 30-gauge needle connected by a polyethylene tube to a 25 μl Hamilton syringe (Hamilton, Birmingham, UK) was inserted through the skin and between the vertebrae into the […] space of the L5-L6 spinal segments. Intrathecal injections were given over a period of 5 seconds.

Human CB1 = Human CB1 (Homo sapiens, UniProt P21554); assay: GTPγ[35S] functional assay, CHO cell membrane extracts; set-up: Emax: dose or concentration left out as unconfirmed
Sequence of Human CB1 (P21554 whole entry): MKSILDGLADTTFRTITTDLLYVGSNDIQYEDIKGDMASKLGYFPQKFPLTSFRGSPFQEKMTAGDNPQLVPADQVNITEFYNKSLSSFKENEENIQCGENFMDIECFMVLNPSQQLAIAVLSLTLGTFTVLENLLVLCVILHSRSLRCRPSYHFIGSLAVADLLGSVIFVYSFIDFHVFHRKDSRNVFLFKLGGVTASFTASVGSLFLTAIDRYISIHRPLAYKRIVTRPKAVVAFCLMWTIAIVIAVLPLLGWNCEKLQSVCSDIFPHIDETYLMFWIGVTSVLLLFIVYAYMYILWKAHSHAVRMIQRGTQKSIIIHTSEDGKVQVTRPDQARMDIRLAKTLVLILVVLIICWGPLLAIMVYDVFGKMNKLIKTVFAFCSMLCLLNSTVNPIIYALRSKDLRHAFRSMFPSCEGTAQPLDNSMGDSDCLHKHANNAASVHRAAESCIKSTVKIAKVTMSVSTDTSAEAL
Method: Functional activity was evaluated using GTPγ[^35S] assay in CHO cell membrane extracts expressing recombinant human CB1 or CB2 receptors as we previously described [51]. Compounds were solubilized in 100% DMSO at a concentration of 10 mM within 4 hours of the first testing session. A predilution for the dose response curve was performed in 100% DMSO and then diluted 100 fold in assay buffer at a concentration 2 fold higher than the concentration to be tested. […] Membranes were mixed with GDP diluted in assay buffer to give 30 μM solution (volume:volume) and incubated for at least 15 min on ice. In parallel, GTPγ[^35S] (GE Healthcare, Catalogue number SJ1308) were mixed with the beads (PVT-WGA (GE Healthcare, RPNQ001)), diluted in assay buffer at 50 mg/ml (0.5 mg/10 μl) (volume:volume) just before starting the reaction. The following reagents were successively added in the wells of an Optiplate (Perkin Elmer): 50 μl of ligand, 20 μl of the membranes:GDP mix, 10 μl of assay buffer for agonist testing, and 20 μl of the GTPγ[^35S]:beads mix. The plates were covered with a topseal, shacked on an orbital shaker for 2 min, and then incubated for 1 hour at room temperature. Then the plates were centrifuged for 10 min at 2000 rpm and counted for 1 min/well with a PerkinElmer TopCount reader. […] For replicate determinations, the maximum variability tolerated in the test was of ± 20% around the average of the replicates.

[1] = 1 mg/kg i.p., 30 min before behavioural assessment
[2] = i.t., 10 min prior, NMP-4 1-10 μg/i.t., NMP-144 0.1-1 μg/i.t., NMP-7 3-30 μg/i.t., mice

Sequence of Human CB2 (P34972 whole entry): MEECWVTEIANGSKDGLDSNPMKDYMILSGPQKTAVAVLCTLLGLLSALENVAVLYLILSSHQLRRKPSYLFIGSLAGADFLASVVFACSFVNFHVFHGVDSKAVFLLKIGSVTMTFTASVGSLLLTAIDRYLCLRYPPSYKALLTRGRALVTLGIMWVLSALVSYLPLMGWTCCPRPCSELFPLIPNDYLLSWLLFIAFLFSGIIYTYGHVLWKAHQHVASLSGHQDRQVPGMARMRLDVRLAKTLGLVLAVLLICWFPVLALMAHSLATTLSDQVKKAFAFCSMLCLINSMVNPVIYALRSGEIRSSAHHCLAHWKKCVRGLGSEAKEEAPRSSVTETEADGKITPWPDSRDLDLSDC

SMILES: CCCCCn1c2ccccc2c2cc(C(=O)N3CCCCC3)ccc21 [NMP-7]
- EC50 (Human CB2): 10.5 ± 1.8 nM
- Emax (Human CB2; read-out: GTPγ[35S] functional assays Human CB2 Emax): 30.8%
- hyperpolarizing shift in the half inactivation potential of Cav3.2 channels (Cav3.2): 13 mV
- half-inactivation potential after treatment with drug (Cav3.2; n = 4): -63.3 ± 3.5 mV
- locomotor activity in the open-field test (locomotor activity): did not alter locomotor activity
- inhibition of the pain responses in phase 1 (formalin-induced pain; [1]): 92 ± 7%
- inhibition of the pain responses in phase 2 (formalin-induced pain; [1]): 94 ± 6%
- effect on first phase of formalin-induced nociception (formalin-induced pain; i.pl., co-injected with formalin, NMP-4 and NMP-144 0.03-3 μg/paw, NMP-7 0.3-3 μg/i.pl.): able to inhibit the first phase
- reduction of pain response time, first (neurogenic) phase (formalin-induced pain; [2]): significant inhibition
- reduction of pain response time, second (inflammatory) phase (formalin-induced pain; [2]): significant inhibition
- EC50 (Human CB1): 96.9 ± 11.9 nM
- Emax (Human CB1; read-out: GTPγ[35S] functional assays Human CB1 Emax): 73.6%
